# Reference: PMC2267855, “Site-directed mutagenesis of Arginine282 suggests how protons and peptides are co-transported by rabbit PepT1” (The International Journal of Biochemistry & Cell Biology, 2008)
# Where a chain is given by its changes, count along the chain named. Where a SMILES comes first, the peptide text is derived from it.
# Tests used:
# Format in all cases: cell-based, rabbit
# R282K-PepT1 = target: T1, R282K-PepT1 (Oryctolagus cuniculus, UniProt P36836, R282K); assay: Inhibition of [3H]-D-Phe-L-Gln uptake into Xenopus oocytes expressing R282K-PepT1 (competition, Ki); settings: pHout 5.5, 0.4 μM [3H]-D-Phe-L-Gln
# T1 construct: expressed in transfected cells; host or cells: Xenopus laevis oocytes injected with cRNA
# T1 sequence (P36836 1-707 R282K): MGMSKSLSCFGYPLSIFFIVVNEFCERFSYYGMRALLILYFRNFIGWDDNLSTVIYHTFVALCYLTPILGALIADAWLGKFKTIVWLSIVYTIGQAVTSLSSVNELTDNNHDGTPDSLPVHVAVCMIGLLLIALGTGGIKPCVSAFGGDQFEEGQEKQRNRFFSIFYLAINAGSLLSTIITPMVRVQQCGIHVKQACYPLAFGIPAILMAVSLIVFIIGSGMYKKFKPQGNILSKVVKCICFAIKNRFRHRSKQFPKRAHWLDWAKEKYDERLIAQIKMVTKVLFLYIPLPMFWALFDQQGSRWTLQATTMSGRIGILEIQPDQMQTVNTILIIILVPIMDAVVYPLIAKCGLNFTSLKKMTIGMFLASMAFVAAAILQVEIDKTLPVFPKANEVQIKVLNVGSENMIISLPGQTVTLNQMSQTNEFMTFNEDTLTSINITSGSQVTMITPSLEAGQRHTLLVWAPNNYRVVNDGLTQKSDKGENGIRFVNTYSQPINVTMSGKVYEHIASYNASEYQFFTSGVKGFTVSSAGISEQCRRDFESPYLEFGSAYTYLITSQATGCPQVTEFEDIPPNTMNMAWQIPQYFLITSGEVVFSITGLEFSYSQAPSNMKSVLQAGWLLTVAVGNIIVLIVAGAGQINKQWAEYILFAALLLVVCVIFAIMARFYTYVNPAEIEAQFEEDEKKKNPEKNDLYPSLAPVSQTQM
# Procedure: (§1) Zero-trans uptake of [^3H]-D-Phe-L-Gln (17.4 Ci/mmole, custom synthesised, Cambridge Research Biochemicals, Stockton-on-Tees, UK) was performed as previously described ([Meredith, 2004]). Briefly, 5 oocytes were incubated in 100 μl of uptake medium (95 mM NaCl, 2 mM KCl, 1 mM CaCl2, 0.42 mM MgCl2, 10 mM Tris/Hepes pH 7.4 or Tris/Mes pH 5.5) with tracer (0.4 μM) [^3H]-D-Phe-L-Gln. After incubation, the oocytes were washed sequentially five times in 1 ml of ice-cold 120 mM NaCl solution, lysed individually with 100 μl 2% (w/v) SDS and liquid scintillation counted. As a control non-injected oocytes were also incubated in uptake medium with [^3H]-D-Phe-L-Gln as above.
# (§2) The affinity of wild-type and mutant PepT1 were assessed by competition studies with 0.4 μM [^3H]-D-Phe-L-Gln and Gly-L-Gln present in the uptake medium in concentrations from 0 to 2 mM using the protocol above, and the Ki calculated using the method of [Deves and Boyd (1989)].
# R282E-PepT1 [1] = target: T2, R282E-PepT1 (Oryctolagus cuniculus, UniProt P36836, R282E); assay: Inhibition of [3H]-D-Phe-L-Gln uptake into Xenopus oocytes expressing R282E-PepT1 (competition, Ki); settings: pHout 5.5, 0.4 μM [3H]-D-Phe-L-Gln
# T2 construct: expressed in transfected cells; host or cells: Xenopus laevis oocytes injected with cRNA
# T2 sequence (P36836 1-707 R282E): T1 sequence (P36836 1-707 R282K) with K282E
# Procedure: as §1, §2
# R282E-PepT1 [2] = target: T2, R282E-PepT1; assay: Accumulation of [3H]-D-Phe-L-Gln above the extracellular concentration by oocytes expressing R282E-PepT1; settings: R282E-PepT1, pHout 7.4, 24 h incubation
# Procedure: as §1
# R282E-PepT1 [3] = target: T2, R282E-PepT1; assay: Apparent charge:peptide stoichiometry (two-electrode voltage clamp current / radiolabelled uptake), R282E-PepT1; settings: R282E-PepT1, pHout 5.5, resting membrane potential
# Procedure: Measurements of membrane potential were made by impaling oocytes with a single glass microelectrode (Intra 767 amplifier, WPI, Stevenage, Hertfordshire, UK) perfused in uptake medium (as above) with or without 0.4 μM D-Phe-L-Gln (synthesised in house), 0.6 mM Gly-L-Gln (Sigma, Poole, UK) or 10 mM 4-aminobenzoic acid (4-AMBA, Sigma). Two-electrode voltage clamp (TEVC) was performed by placing oocytes in a 0.1 ml recording chamber and perfusing with uptake solution (pH 5.5 or 7.4) at a rate of 15 ml/min. Oocytes were impaled by two agarose-cushioned microelectrodes filled with 3 M KCl (0.5–2.0 MΩ) and voltage-clamped at −60 mV using a Geneclamp 500B amplifier and PCLAMP 8.1 software (Axon Instruments, CA, USA). The holding potential was stepped from −60 mV over the range of −150 to +50 mV in 10 mV steps, each pulse lasting 100 ms, and returning to −60 mV in between test voltage pulses. Typically traces were filtered at 1 kHz during recording and digitized at 0.5–5 kHz using the DigiData 1200 interface (Axon Instruments, CA, USA). All experiments were carried out at room temperature.
# In order to calculate the apparent charge:substrate stoichiometry, the peptide induced current that was measured by two-electrode voltage clamp at the oocyte resting membrane potential was divided by the radiolabelled dipeptide uptake in oocytes from the same preparation. […]
Ki (R282K-PepT1) [µM],Ki (R282E-PepT1 [1]) [µM],accumulation above extracellular concentration (R282E-PepT1 [2]),"apparent stoichiometry (charge:peptide), normalised to wild-type 1:1 (R282E-PepT1 [3])",SMILES
480 ± 260,350 ± 170,,,NCC(=O)N[C@@H](CCC(N)=O)C(=O)O [Gly-L-Gln] (H-Gly-Gln-OH)
,,2.3 ± 0.4 -fold,4,NC(=O)CC[C@H](NC(=O)[C@H](N)Cc1ccccc1)C(=O)O [D-Phe-L-Gln]
